The results in this text go back to patent publication US12384776B2, “Compounds and uses thereof” (Foghorn Therapeutics Inc., priority 2019, dated 2025).

This assay addresses Nanoluciferase-BRD9 fusion protein (3×FLAG-NLuc-BRD9) in SYO-1 cells (Homo sapiens (Human), UniProt Q9H8M2). Briefly: SYO1 BRD9 NanoLuc degradation assay. It is filed as cell-based. The method, boiled down: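 Degradation read as loss of NLuc signal after 6 h compound exposure (1 μM top final, 3-fold steps, 10 points, duplicates) in SYO-1 cells stably carrying 3×FLAG-NLuc-BRD9. Signal normalised between DMSO-treated cells and cells given 1 μM of a known BRD9 degrader.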

The mark [1] stands for this setting: SYO-1 cells expressing 3×FLAG-NLuc-BRD9, 6 hours incubation, top dose 1 μM.

As usually defined, the IC50 is the concentration at which inhibition is half-maximal. Read a high IC50 as a need for much substance.

Each structure is given as a SMILES string.

Chain of Nanoluciferase-BRD9 fusion protein (3×FLAG-NLuc-BRD9) in SYO-1 cells (Q9H8M2 whole entry, the tested form may be a part): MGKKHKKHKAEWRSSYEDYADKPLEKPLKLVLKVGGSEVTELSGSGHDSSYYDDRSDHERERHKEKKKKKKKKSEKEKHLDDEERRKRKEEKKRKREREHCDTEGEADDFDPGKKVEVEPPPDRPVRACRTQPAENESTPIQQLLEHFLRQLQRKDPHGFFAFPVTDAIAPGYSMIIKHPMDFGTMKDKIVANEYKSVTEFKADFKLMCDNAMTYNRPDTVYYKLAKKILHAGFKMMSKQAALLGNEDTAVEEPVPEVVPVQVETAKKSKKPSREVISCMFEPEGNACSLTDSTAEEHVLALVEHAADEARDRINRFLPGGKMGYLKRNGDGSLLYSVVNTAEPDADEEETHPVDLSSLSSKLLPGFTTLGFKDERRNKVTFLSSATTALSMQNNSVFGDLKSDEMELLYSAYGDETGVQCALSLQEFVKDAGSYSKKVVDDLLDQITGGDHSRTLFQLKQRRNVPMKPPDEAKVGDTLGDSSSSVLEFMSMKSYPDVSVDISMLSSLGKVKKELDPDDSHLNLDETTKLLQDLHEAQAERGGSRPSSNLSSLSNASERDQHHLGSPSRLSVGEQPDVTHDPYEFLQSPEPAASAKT

The compound `COc1cc(-c2cn(C)c(=O)c3c2N(C)CC3)cc(OC)c1CN1CC(CN2CCC3(CC2)CN(c2ccc4c(c2)C(=O)N(C2CCC(=O)NC2=O)C4)C3)C1` (stereo not drawn) [Compound D352] registered a 50% inhibitory concentration (IC50) (SYO-1 cells, 6 hours, Table 6C) of no less than 10 nM.
`CNC(=O)N1CCc2c(-c3cc(OC)c(CN4CCC5(CC4)CC(N4Cc6cc7c(cc6C4)C(=O)N(C4CCC(=O)NC4=O)C7=O)C5)c(OC)c3)cn(C)c(=O)c2C1` (stereo not drawn) [Compound D182] registered a half-inhibitory concentration (IC50) under setting [1] of less than 10 nM.
Under setting [1], `CNC(=O)N1CCc2c(-c3cc(OC)c(CN4CC(CN5CCN(c6ccc7c(c6)C(=O)N(C6CCC(=O)NC6=O)C7=O)CC5)C4)c(OC)c3)cn(C)c(=O)c2C1` (stereo not drawn) [Compound D168] registered an IC50 of 10 to 100 nM.
Compound `CNC(=O)N1CCc2c(-c3cc(OC)c(CN4CCC(CN5CCC6(CN(c7ccc8c(c7)C(=O)N(C7CCC(=O)NC7=O)C8)C6)C(F)(F)C5)CC4)c(OC)c3)cn(C)c(=O)c2C1` (stereo not drawn) [Compound D315] showed a 50% inhibitory concentration (IC50) (SYO-1 cells, 6 hours, Table 6C) of less than 10 nM.
The compound `COc1cc(-c2cn(C)c(=O)c3c2CCN(C(=O)NCCCCCOc2cccc4c2C(=O)N(C2CCC(=O)NC2=O)C4=O)C3)cc(OC)c1CN1CCC1` (stereo not drawn) [Compound D90] displayed an IC50 under setting [1] of 10 to 100 nM.
`COc1cc(-c2cn(C)c(=O)c3c2CCN(C(=O)NCCN2CCC4C2CN4c2ccc4c(c2)C(=O)N(C2CCC(=O)NC2=O)C4=O)C3)cc(OC)c1CN(C)C` (stereo not drawn) [Compound D184] displayed an IC50 under setting [1] of 10 to 100 nM.
Still for that read-out and setting: for `COc1cc(-c2cn(C)c(=O)c3c2CCN(C(=O)NC2CC4(CCN(CCOc5ccc6c(c5)C(=O)N(C5CCC(=O)NC5=O)C6=O)C4)C2)C3)cc(OC)c1CN(C)C` (stereo not drawn) [Compound D228] the value was 10 to 100 nM; for `CNC(=O)N1CCc2c(-c3cc(OC)c(CN4CC(C(C)N5CCC6(CC5)CN(c5ccc7c(c5)C(=O)N(C5CCC(=O)NC5=O)C7=O)C6)C4)c(OC)c3)cn(C)c(=O)c2C1` (stereo not drawn) [Compound D107], less than 10 nM.
Regarding `CNC(=O)N1CCc2c(-c3cc(OC)c(CN4[C@H](C)CN(CCC5CCN(c6ccc7c(c6)C(=O)N(C6CCC(=O)NC6=O)C7)CC5)C[C@H]4C)c(OC)c3)cn(C)c(=O)c2C1` (stereo partly drawn) [Compound D326], for the setting “SYO-1 cells, 6 hours, Table 6C”, the half-maximal inhibitory concentration (IC50) was less than 10 nM.
As for `CNC(=O)N1CCc2c(-c3cc(OC)c(CN4CCC(CCN5CCN(c6c(F)cc7c(c6F)C(=O)N(C6CCC(=O)NC6=O)C7=O)CC5)CC4)c(OC)c3)cn(C)c(=O)c2C1` (stereo not drawn) [Compound D78], under setting [1], the IC50 was less than 10 nM.
On the same count and under the same terms, then `CNC(=O)N1CCc2c(-c3cc(OC)c(CN4CCC(CN(C(C)C)C5CC(Oc6ccc7c(c6)C(=O)N(C6CCC(=O)NC6=O)C7=O)C5)CC4)c(OC)c3)cn(C)c(=O)c2C1` (stereo not drawn) [Compound D125], with less than 10 nM; and `CNC(=O)N1CCc2c(-c3cc(OC)c(CN4CC(C(C)(C)N5CCC6(CC5)CN(c5ccc7c(c5)C(=O)N(C5CCC(=O)NC5=O)C7=O)C6)C4)c(OC)c3)cn(C)c(=O)c2C1` (stereo not drawn) [Compound D124], with less than 10 nM; and `CNC(=O)N1CCc2c(-c3cc(OC)c(CN4CCC(CN5CCC6(CC5)CN(c5ccc7c(c5)C(=O)N(C5CCC(=O)NC5=O)C7=O)C6)CC4)c(OC)c3)cn(C)c(=O)c2C1` (stereo not drawn) [Compound D136], with less than 10 nM.
For `CNC(=O)N1CCc2c(-c3cc(OC)c(CN4CCN(CC5CCN(c6ccc7c(c6)C(=O)N(C6CCC(=O)NC6=O)C7)CC5)CC4)c(OC)c3)cn(C)c(=O)c2C1` (stereo not drawn) [Compound D40], under setting [1], the IC50 is less than 10 nM.
The compound `CNC(=O)N1CCc2c(-c3cc(OC)c(CN4CC(C(C)N5CCC6(CC5)CN(c5ccc7c(c5)C(=O)N(C5CCC(=O)NC5=O)C7)C6)C4)c(OC)c3)cn(C)c(=O)c2C1` (stereo not drawn) [Compound D52] registered an IC50 under setting [1] of less than 10 nM.
For `CNC(=O)N1CCc2c(-c3cc(OC)c(CN4CC(NC(=O)CCCCCOc5cccc6c5C(=O)N(C5CCC(=O)NC5=O)C6=O)C4)c(OC)c3)cn(C)c(=O)c2C1` (stereo not drawn) [Compound D16, 5-(4-[[3-(6-[[2-(2,6-dioxopiperidin-3-yl)-1,3-dioxoisoindol-4-yl]oxy]hexanamido)azetidin-1-yl]methyl]-3,5-dimethoxyphenyl)-N,7-dimethyl-8-oxo-3,4-dihydro-1H-2,7-naphthyridine-2-carboxamide formic acid], the IC50 (SYO-1 cells, 6 hours, Table 6A) was greater than 10 nM.
`COc1cc(-c2cn(C)c(=O)c3c2CCN(C(=O)NCCS(=O)(=O)CCNc2cccc4c2C(=O)N(C2CCC(=O)NC2=O)C4=O)C3)cc(OC)c1CN(C)C` (stereo not drawn) [Compound D7, 5-[4-[(dimethylamino)methyl]-3,5-dimethoxyphenyl]-N-[2-(2-[[2-(2,6-dioxopiperidin-3-yl)-1,3-dioxoisoindol-4-yl]amino]ethanesulfonyl)ethyl]-7-methyl-8-oxo-3,4-dihydro-1H-2,7-naphthyridine-2-carboxamide formic acid]: the DC50 (SYO-1 cells, 6 hours, Table 6A, read-out: SYO1 BRD9-NanoLuc degradation IC50) was greater than 10 nM.
Under setting [1], `COc1cc(-c2cn(C)c(=O)c3c2CCN(C(=O)NCCN2CCC4CCN(c5ccc6c(c5)C(=O)N(C5CCC(=O)NC5=O)C6=O)C4C2)C3)cc(OC)c1CN(C)C` (stereo not drawn) [Compound D188] had a half-maximal inhibitory concentration (IC50) of 100 to 1000 nM.
Consider `COc1cc(-c2cn(C)c(=O)c3c2CCN(C(=O)NC2CC4CN(CCOc5ccc6c(c5)C(=O)N(C5CCC(=O)NC5=O)C6=O)CC4C2)C3)cc(OC)c1CN(C)C` (stereo not drawn) [Compound D273], for which, under setting [1], the IC50 lay within 100 to 1000 nM.
Take `COc1cc(-c2cn(C)c(=O)c3c2CCCN3)cc(OC)c1CN1CCC2(CC1)CN(c1ccc3c(c1)CN(C1CCC(=O)NC1=O)C3=O)C2` (stereo not drawn) [Compound D360]: the IC50 (SYO-1 cells, 6 hours, Table 6C) was less than 10 nM.
As for `CNC(=O)N1CCc2c(-c3cc(OC)c(CN4CC(CCN5CCN(c6ccc7c(c6)C(=O)N(C6CCC(=O)NC6=O)C7=O)CC5)C4)c(OC)c3)cn(C)c(=O)c2C1` (stereo not drawn) [Compound D258], the IC50 under setting [1] fell in the range of 100 to 1000 nM.
The same measure, in the same setting: then `CNC(=O)N1CCc2c(-c3cc(OC)c(CN4CCN(CCC5CCN(c6ccc7c(c6)C(=O)N(C6CCC(=O)NC6=O)C7=O)CC5)C(C#N)C4)c(OC)c3)cn(C)c(=O)c2C1` (stereo not drawn) [Compound D93], with less than 10 nM.
Regarding `CNC(=O)N1CCc2c(-c3cc(OC)c(CN4CCN(CCC5CCN(c6ccc7c(c6)C(=O)N(C6CCC(=O)NC6=O)C7)CC5)CC4COC)c(OC)c3)cn(C)c(=O)c2C1` (stereo not drawn) [Compound D340], under “SYO-1 cells, 6 hours, Table 6C”, the IC50 was less than 10 nM.
Under “SYO-1 cells, 6 hours, Table 6C”, `CCc1cc(-c2cn(C)c(=O)c3c2CCN(C(=O)NC)C3)cc(OC)c1CN1CCN(CCC2CCN(c3ccc4c(c3)C(=O)N(C3CCC(=O)NC3=O)C4)CC2)CC1` (stereo not drawn) [Compound D327] yielded an IC50 of less than 10 nM.
With `CNC(=O)N1CCc2c(-c3cc(OC)c(CN4CCC(CCN(C)C5CN(c6ccc7c(c6)C(=O)N(C6CCC(=O)NC6=O)C7=O)C5)CC4)c(OC)c3)cn(C)c(=O)c2C1` (stereo not drawn) [Compound D171], under setting [1], the IC50 is less than 10 nM.
Consider `[2H]C([2H])([2H])NC(=O)N1CCc2c(-c3cc(OC)c(CN4[C@H](C)CN(CCC5CCN(c6ccc7c(c6)CN(C6CCC(=O)NC6=O)C7=O)CC5)C[C@H]4C)c(OC)c3)cn(C)c(=O)c2C1` (stereo partly drawn) [Compound D324], for which the IC50 (SYO-1 cells, 6 hours, Table 6C) was less than 10 nM.
The compound `CNC(=O)N1CCc2c(-c3cc(OC)c(CN4CCC(C#Cc5ccc6c(c5)C(=O)N(C5CCC(=O)NC5=O)C6=O)CC4)c(OC)c3)cn(C)c(=O)c2C1` (stereo not drawn) [Compound D143] came in with an IC50 under setting [1] of less than 10 nM.
Regarding `CNC(=O)N1CCc2c(-c3cc(OC)c(CN4CCC(N5CCN(c6ccc7c(c6)C(=O)N(C6CCC(=O)NC6=O)C7=O)CC5)CC4)c(OC)c3)cn(C)c(=O)c2C1` (stereo not drawn) [Compound D201], under setting [1], the half-maximal inhibitory concentration (IC50) was less than 10 nM.
Compound `CNC(=O)N1CCc2c(-c3cc(OC)c(CN4CC(Oc5ccc6c(c5)C(=O)N(C5CCC(=O)NC5=O)C6=O)C4)c(OC)c3)cn(C)c(=O)c2C1` (stereo not drawn) [Compound D116] came in with a 50% inhibitory concentration (IC50) under setting [1] of less than 10 nM.
`CNC(=O)N1CCc2c(-c3cc(OC)c(CN4CCC5(CC4)CN(CCCCOc4ccc6c(c4)C(=O)N(C4CCC(=O)NC4=O)C6=O)CCO5)c(OC)c3)cn(C)c(=O)c2C1` (stereo not drawn) [Compound D222] yielded a half-maximal inhibitory concentration (IC50) under setting [1] of less than 10 nM.
